Data: patent US20240148002A1, “BIOCIDAL COMPOSITIONS CONTAINING COPPER AND A CO-BIOCIDE” (CORNING INCORPORATED, priority 2021, published 2024)

System: Pseudomonas aeruginosa (P. aeruginosa)
Assay: Minimum bactericidal concentration (MBC) test: serial dilutions in thickened Letheen Broth, plating and colony count
Assay type: cell-based
Set-up: key to MBC observation (contamination grade): −: no bacteria was observed on the plates; +: a trace of contamination was observed (<10 colonies); ++: light contamination was observed (>100 colonies); +++: heavy contamination was observed (continuous smear of growth)
Conditions: 24 hours at 37° C.
Description: The minimum bactericidal concentration (MBC) values reported herein were determined using Pseudomonas aeruginosa (P. aeruginosa), which is a gram-negative pathogen that can cause severe acute and chronic infections. The MBC is the lowest biocide or biocide combination concentration that kills 100% of the tested bacteria. The cultures of P. aeruginosa were grown for 24 hours in Letheen Broth before treatment with each biocide (e.g., copper-containing glass particles or organic co-biocide) or biocide combination (e.g., copper-containing glass particles and an organic co-biocide). A stock copper-containing glass particle dispersion containing 10 wt % copper-containing glass particles and 1.5% hydoxyethylcellulose (HEC) thickener (Natrosol™ Plus 330 PA) was prepared for serial dilution in thickened Letheen Broth (Letheen Broth containing 1.5 wt % HEC thickener) to achieve the desired test concentrations. A stock organic co-biocide or biocide combination dispersion was prepared by combining 5 grams of a 1 wt % dispersion of each organic co-biocide or biocide combination in 1 wt % HEC thickener for serial dilution to achieve the desired test concentrations. 1000 μL of the dispersion of interest was added to a microcentrifuge tube (referred to as “tube 1”). Serial dilution continued with the dilution of 500 μL of the dispersion from tube 1 with 500 μL of thickened Letheen Broth (“tube 2”). Serial dilutions were continued in this manner […] (tube 3 to tube 10). Tube 11 contained 500 μL of thickened Letheen Broth as a “broth blank.” 50 μL of P. aeruginosa was transferred directly from culture into each of tubes 1-11 and the tubes were incubated at 37° C. for 24 hours. At the end of the incubation period, each tube 1-11 was plated and the plates were incubated at 37° C. for 24 hours. At the end of the incubation period, the plates were removed and the colonies on each plate were counted and recorded.
The number of colonies remaining after treatment was determined for serial dilutions of 3 different organic biocides alone and in combination with copper-containing glass particles. Example 1A was treated with serial dilutions of Nuosept® 95 Preservative, which contains a mixture of 5-hydroxymethyl-1-aza-3,7-dioxabicyclo-(3.3.0) octane, 5-hydroxymethoxymethyl-1-aza-3,7-dioxabicyclo-(3.3.0) octane, and 5-hydroxypoly(methyleneoxy)methyl-1-aza-3,7-dioxabicyclo-(3.3.0) octane. Examples 1B and 1C were treated with serial dilutions of a 50:50 mixture and a 25:75 mixture, respectively, of Nuosept® 95 Preservative and copper-containing glass particles. Example 2A was treated with serial dilutions of benzisothiazolinone (BIT). Examples 2B and 2C were treated with serial dilutions of a 50:50 mixture and a 25:75 mixture, respectively, of BIT and copper-containing glass particles. Example 3A was treated with serial dilutions of Bronopol. Examples 3B and 3C were treated with serial dilutions of a 50:50 mixture and a 25:75 mixture, respectively, of Bronopol and copper-containing glass particles. Examples 4A and 4B were duplicate samples treated with serial dilutions of the copper-containing glass particles.
For each Example 1A-C, 2A-C, 3A-C, and 4A-B, 1000 μL of the dispersion of interest, the stock organic co-biocide dispersion, the stock copper-containing glass particle dispersion, or the indicated ratio of each dispersion, was added to a microcentrifuge tube (referred to as “tube 1”). 500 μL of the dispersion from tube 1 was diluted with 500 μL of thickened Letheen Broth (“tube 2”). Serial dilutions with thickened Letheen Broth were prepared up to tube 10. Tube 11 contained 500 μL of thickened Letheen Broth as a “broth blank.” 50 μL of P. aeruginosa was transferred directly from culture into each of tubes 1-11 and the tubes were incubated at 37° C. for 24 hours. At the end of the incubation period, each tube 1-11 was plated and the plates were incubated 37° C. for 24 hours. […]

[1] = Biocide Conc. 3.91 ppm (tube 10)
[2] = Biocide Conc. 7.81 ppm (tube 9)
[3] = Biocide Conc. 15.63 ppm (tube 8)
[4] = Biocide Conc. 31.25 ppm (tube 7)
[5] = Biocide Conc. 62.5 ppm (tube 6)
[6] = Biocide Conc. 1000 ppm (tube 2)
[7] = Biocide Conc. 2000 ppm (tube 1)

Row | Structure (SMILES) | MBC observation (contamination grade) [1] | colony count [1] | MBC observation (contamination grade) [2] | colony count [2] | MBC observation (contamination grade) [3] | colony count [3] | MBC observation (contamination grade) [4] | colony count [4] [colonies] | MBC observation (contamination grade) [5] | colony count [5] [colonies] | MBC observation (contamination grade) (Biocide Conc. 125 ppm (tube 5)) | colony count (Biocide Conc. 125 ppm (tube 5)) [colonies] | MBC observation (contamination grade) (Biocide Conc. 250 ppm (tube 4)) | colony count (Biocide Conc. 250 ppm (tube 4)) [colonies] | MBC observation (contamination grade) (Biocide Conc. 500 ppm (tube 3)) | colony count (Biocide Conc. 500 ppm (tube 3)) [colonies] | MBC observation (contamination grade) [6] | colony count [6] [colonies] | MBC observation (contamination grade) [7] | colony count [7] [colonies]
1 | O=[N+]([O-])C(Br)(CO)CO [Ex. 3A, Bronopol] | +++ | (>1000) colonies | +++ | (>1000) colonies | − | 0 colonies | − | 0 | − | 0 | − | 0 | − | 0 | − | 0 | − | 0 | − | 0
2 | O=c1[nH]sc2ccccc12 [Ex. 2A, benzisothiazolinone] | +++ | (>1000) colonies | +++ | (>1000) colonies | +++ | (>1000) colonies | ++ (light contamination was observed (>100 colonies)) | 513 | + (a trace of contamination was observed (<10 colonies)) | 35 | − | 0 | − | 0 | − | 0 | − | 0 | − | 0
